Assays:
[1] = system: bacteria; experiment: Variation of the amino acid combined with UCA, bactericidal effect; type: cell-based
Source text: Thus in some variations, the amino acid may be limited to a charged (and particularly the positively charged) amino acids, such as amino acid having an electrically charged basic side chain.

[2] = system: methicillin-resistant Staphylococcus aureus (MRSA); experiment: In vitro bactericidal assay against MRSA isolates (viable CFU/mL after treatment); conditions: average of three MRSA isolates, 24 hours, varying CA concentration
Description: Note that efficacy is reported in terms of the viable bacterial concentration (in CFU/mL) remaining after 24 hours of treatment with the drug product (in compliance with CLSI guidelines).
In this example, bacteria (MRSA isolates) are put onto fresh plates and allowed to grow for 30 hours. A suspension inoculum is made from the plates (e.g., a 1 McFarland solution in sterile water), from which the turbidity may be optically read. A standard inoculum may then be cultured in media and 100 μL of that solution combined with 100 μL of drug product and grown at various dilutions for 16-20 hrs. Duplicates may then be examined (e.g., following pelleting at 7,000 RPM for 15 min, resuspended in PBS and serial dilutions plated and grown for 24 hrs.). Duplicate plates at multiple dilutions may then be imaged and colonies counted.
For example, in each of these examples in FIG. 20, the fatty acid to amino acid in the compositions was at a ratio of about 1:0.76 (fatty acid:amino acid) by weight when diluted and used to treat MRSA. GS-1, GS-2 and GS-3 all had fatty acid:amino acid aqueous mixtures with approximately 32% w/w of total active pharmaceutical ingredients (APIs), which were diluted at 1:128 in water, resulting in a concentration of about 0.25% w/w total APIs. […]

| Structure (SMILES) | bactericidal effect when used as the amino acid with the fatty acid [1] | effect of CA on efficacy of the UCA and LARG composition [2] |
| --- | --- | --- |
| N=C(N)NCCC[C@@H](N)C(=O)O [D-Arginine] | ineffective | – |
| CCCCCCCCCCCCCCCCO [CA, cetyl alcohol] | – | clear inhibitory effect |

From patent publication US12383524B2, “Therapeutic compositions of undecylenic acid and arginine” (Wintermute Biomedical, Inc., priority 2018, dated 2025)
